Assay results as given in patent US11225462B2, “Crystal forms of oxypyridine amide derivative and preparation method therefor” (JIANGSU HENGRUI MEDICINE CO., LTD., priority 2018, dated 2022).

What was measured:
FXIa = FXIa (Homo sapiens, UniProt P03951); conditions: reported in WO 2018041122; cited from earlier work
human blood = conditions: reported in WO 2018041122; cited from earlier work
[1] = reported in WO 2018041122; cited from earlier work
[2] = DVS (dynamic vapor sorption) hygroscopicity characterization; type: physicochemical
Method: DVS refers to dynamic vapor sorption and is determined using SMS DVS Advantage at 25° C., with the humidity change of 50%-95%-0%-95%-50% and the stepping of 10% (5% for the last step) (the specific humidity range is determined in accordance with the corresponding plot, and the methods listed herein are those most commonly used), and the standard for determination is as follow: dm/dt is not more than 0.02%, and Tmax is not more than 360 min.

[3] = Influencing factor experiments (light, high temperature, high humidity, 30 days); type: physicochemical
Method: Crystal forms A, B, D and F of the compound of formula (I) were spread and left open to the air, and under conditions of high temperature (40° C. and 60° C.), light (4500 Lux), high humidity (RH 75% and RH 90%), the stability thereof were investigated for a period of 30 days.

[4] = Long-term and accelerated stability experiments (3 months); type: physicochemical
Method: The long-term (25° C., 60% RH) and accelerated (40° C., 75% RH) stability of crystal form A and crystal form F of the compound of formula (I) were investigated for 3 months.

Chain of FXIa (P03951 388-625 limits assumed): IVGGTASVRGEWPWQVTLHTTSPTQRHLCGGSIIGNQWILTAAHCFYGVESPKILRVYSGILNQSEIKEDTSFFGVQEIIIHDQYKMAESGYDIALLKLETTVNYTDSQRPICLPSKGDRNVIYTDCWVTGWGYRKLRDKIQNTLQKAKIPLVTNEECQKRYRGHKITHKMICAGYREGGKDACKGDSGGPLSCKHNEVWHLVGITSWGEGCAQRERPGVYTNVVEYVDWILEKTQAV
Chain of FXIa (P03951 19-387 partner limits assumed): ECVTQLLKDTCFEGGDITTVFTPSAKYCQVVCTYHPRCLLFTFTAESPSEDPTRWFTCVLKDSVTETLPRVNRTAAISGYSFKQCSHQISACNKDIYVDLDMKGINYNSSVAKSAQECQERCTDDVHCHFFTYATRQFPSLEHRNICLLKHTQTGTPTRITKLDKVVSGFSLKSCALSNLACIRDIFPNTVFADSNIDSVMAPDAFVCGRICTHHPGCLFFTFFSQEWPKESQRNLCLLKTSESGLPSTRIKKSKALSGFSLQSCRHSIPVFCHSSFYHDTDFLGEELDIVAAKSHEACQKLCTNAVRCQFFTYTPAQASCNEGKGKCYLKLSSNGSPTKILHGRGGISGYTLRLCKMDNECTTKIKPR

For `CCC(=O)c1ccc(Cl)cc1-c1cc(=O)n([C@@H](CCOC(C)(C)C)C(=O)Nc2ccc(C(=O)O)cc2)cc1OC` [compound of formula (I), (S)-4-(4-(tert-butoxy)-2-(4-(5-chloro-2-propionylphenyl)-5-methoxy-2-oxopyridin-1(2H)-yl)butanamido)benzoic acid], the “inhibitory effect on FXIa” value (FXIa) is listed as “significant inhibitory effect”, the “anticoagulant effect on human blood” value (human blood) is listed as “significant anticoagulant effect” and the pharmacokinetic absorption [1] is listed as “good pharmacokinetic absorption”.
With `CCC(=O)c1ccc(Cl)cc1-c1cc(=O)n([C@@H](CCOC(C)(C)C)C(=O)Nc2ccc(C(=O)O)cc2)cc1OC` [Crystal form A, (S)-4-(4-(tert-butoxy)-2-(4-(5-chloro-2-propionylphenyl)-5-methoxy-2-oxopyridin-1(2H)-yl)butanamido)benzoic acid] the “mass increase under normal conditions” value ([2]; 25° C. and 60% RH) was “about 1.156%”, the “hygroscopicity according to guidelines for drug hygroscopicity test in China Pharmacopoeia (2015 edition)” value ([2]; 25° C., 10% RH to 80% RH) was “slightly hygroscopic (less than 2% but not less than 0.2%)” and the “mass increase as the humidity increases” value ([2]; 25° C., 10% RH to 80% RH) was “about 1.781%”. For the same molecule, the “mass increase under accelerated test conditions” value ([2]; 70% RH) was “about 1.479%”, the “mass increase under extreme conditions” value ([2]; 90% RH) was “about 2.199%” and the “crystal form before and after DVS detection (XRPD comparison)” value ([2]; after DVS detection) was “unchanged”. The “desorption process and adsorption process of the sample” value ([2]; humidity change from 0% to 95%) was “basically coincide”, the “% Purity” value ([3]; 40° C., 5 days) was 98.74% and the Color and trait ([3]; 40° C., 5 days) was “Yellow solid”. For the same molecule, the “% Purity” value ([3]; 40° C., 10 days) was 98.70%, the Color and trait ([3]; 40° C., 10 days) was “Yellow solid” and the “% Purity” value ([3]; 40° C., 30 days) was 98.48%. For the same molecule, the Color and trait ([3]; 40° C., 30 days) was “Yellow solid”, the “% Purity” value ([3]; 60° C., 5 days) was 98.73% and the Color and trait ([3]; 60° C., 5 days) was “Yellow solid”. For the same molecule, the “% Purity” value ([3]; 60° C., 10 days) was 98.68%, the Color and trait ([3]; 60° C., 10 days) was “Yellow solid” and the “% Purity” value ([3]; 60° C., 30 days) was 98.50%. For the same molecule, the Color and trait ([3]; 60° C., 30 days) was “Yellow solid”, the “% Purity” value ([3]; 4500 Lux, 5 days) was 98.74% and the Color and trait ([3]; 4500 Lux, 5 days) was “Yellow solid”. For the same molecule, the “% Purity” value ([3]; 4500 Lux, 10 days) was 98.74%, the Color and trait ([3]; 4500 Lux, 10 days) was “Yellow solid” and the “% Purity” value ([3]; 4500 Lux, 30 days) was 98.75%. The Color and trait ([3]; 4500 Lux, 30 days) was “Yellow solid”, the “% Purity” value ([3]; Initial condition, day 0) was 98.76% and the Color and trait ([3]; Initial condition, day 0) was “Yellow solid”. The “% Purity” value ([3]; RH 75%, 5 days) was 98.76%, the “% Weight gain” value ([3]; RH 75%, 5 days) was 1.15% and the Color and trait ([3]; RH 75%, 5 days) was “Yellow solid”. The “% Purity” value ([3]; RH 75%, 10 days) was 98.76%, the “% Weight gain” value ([3]; RH 75%, 10 days) was 3.30% and the Color and trait ([3]; RH 75%, 10 days) was “Yellow solid”. For the same molecule, the “% Purity” value ([3]; RH 75%, 30 days) was 98.76%, the “% Weight gain” value ([3]; RH 75%, 30 days) was 5.85% and the Color and trait ([3]; RH 75%, 30 days) was “Yellow solid”. For the same molecule, the “% Purity” value ([3]; RH 90%, 5 days) was 98.75%, the “% Weight gain” value ([3]; RH 90%, 5 days) was 3.18% and the Color and trait ([3]; RH 90%, 5 days) was “Yellow solid”. The “% Purity” value ([3]; RH 90%, 10 days) was 98.75%, the “% Weight gain” value ([3]; RH 90%, 10 days) was 8.14% and the Color and trait ([3]; RH 90%, 10 days) was “Yellow solid”. The “% Purity” value ([3]; RH 90%, 30 days) was 98.76%, the “% Weight gain” value ([3]; RH 90%, 30 days) was 11.37% and the Color and trait ([3]; RH 90%, 30 days) was “Yellow solid”. The “physical and chemical stability (conclusion)” value ([3]; light, 40° C., 60° C., 75% RH or 90% RH for 30 days) was “good physical and chemical stability”, the “% Purity 1 month” value ([4]; 25° C., 60% RH) was 98.80% and the “% Purity 2 months” value ([4]; 25° C., 60% RH) was 98.77%. For the same molecule, the “% Purity 3 months” value ([4]; 25° C., 60% RH) was 98.76%, the “% Purity Initial condition” value ([4]; 25° C., 60% RH) was 98.79% and the “% Purity 1 month” value ([4]; 40° C., 75% RH) was 98.79%. The “% Purity 2 months” value ([4]; 40° C., 75% RH) was 98.75%, the “% Purity 3 months” value ([4]; 40° C., 75% RH) was 98.74% and the “% Purity Initial condition” value ([4]; 40° C., 75% RH) was 98.79%. For the same molecule, the “physical and chemical stability (conclusion)” value ([4]; long-term (25° C., 60% RH) and accelerated (40° C., 75% RH) conditions for 3 months) was “good physical and chemical stability”.
